In test [1] the target is T1, glutathione-S-transferase (GST) tagged LXRalpha LBD (ligand binding domain) (Homo sapiens, UniProt Q13133).
T1 construct: purchased Invitrogen pv4655
T1 sequence (Q13133 209-447 limits assumed): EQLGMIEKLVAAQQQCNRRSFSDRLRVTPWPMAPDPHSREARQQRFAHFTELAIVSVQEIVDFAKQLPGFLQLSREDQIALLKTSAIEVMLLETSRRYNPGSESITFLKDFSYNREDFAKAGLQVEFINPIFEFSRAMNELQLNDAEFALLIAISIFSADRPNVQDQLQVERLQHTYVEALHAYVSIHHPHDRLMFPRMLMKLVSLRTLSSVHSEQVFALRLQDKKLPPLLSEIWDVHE
As to the kind of experiment: LanthaScreen TR-FRET Liver X Receptor Coactivator Assay, LXR alpha. Particulars: for Emax: efficacy (Emax) in relation to reference dual agonist T0901317, read-out: LXR alpha actiivty at max dose (%); for LXR alpha IP (nM) / EC50: potency (Inflection Point) of compound-induced co-activator recruitment, TR-FRET; for EC50: read-out: LXR alpha IP. It is filed as biochemical. The protocol:
(§1) While running the LanthaScreen™ TR-FRET Liver X Receptor Coactivator Assay, LXR alpha-LBD or LXR beta-LBD was added to ligand test compounds followed by addition of a mixture of a fluorescein-labelled coactivator peptide and terbium-conjugated anti-GST antibody. After an incubation period at room temperature, TR-FRET (time-resolved fluorescence resonance energy transfer) was measured using a filter-based instrument capable of TR-FRET, e.g. PerkinElmer Envision.
On the technique in general: TR-FRET usually uses a lanthanide donor and a delayed reading to cut background.

Test [2] addresses T2, glutathione-S-transferase (GST) tagged LXRbeta LBD (ligand binding domain) (Homo sapiens, UniProt P55055).
T2 construct: purchased Invitrogen pv4658.pps
T2 sequence (P55055 222-460 limits assumed): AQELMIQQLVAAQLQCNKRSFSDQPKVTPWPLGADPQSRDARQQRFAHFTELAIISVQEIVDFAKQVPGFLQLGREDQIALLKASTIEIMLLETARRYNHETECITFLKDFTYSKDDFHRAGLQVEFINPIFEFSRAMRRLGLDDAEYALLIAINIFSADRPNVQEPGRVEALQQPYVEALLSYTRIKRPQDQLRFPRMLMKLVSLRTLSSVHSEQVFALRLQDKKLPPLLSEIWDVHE
The experiment in a line: LanthaScreen TR-FRET Liver X Receptor Coactivator Assay, LXR beta. It is filed as biochemical. The settings on record: for Emax: read-out: LXR beta actiivty at max dose (%); for EC50: potency (Inflection Point) of compound-induced co-activator recruitment, TR-FRET. The procedure:
as §1

[3] abbreviates: efficacy (Emax) in relation to reference dual agonist T0901317.

Data on 15 molecules can be found in patent US10894775B2, “Piperidine derivatives as liver X receptor beta agonists, compositions, and their use” (Merck Sharp & Dohme Corp., priority 2016, dated 2021).

Where two headings read alike, the source gives them in different places.

Consider `COc1cccc([C@@](O)(C(=O)N2CCC(CCCC(C)Nc3ccc(C(=O)N(C)C)c(Cl)c3)CC2)C(F)(F)F)c1` (single isomer, unassigned) [Example 4-5, 2-chloro-N,N-dimethyl-4-((R or S)-5-(1-((R or S)-3,3,3-trifluoro-2-hydroxy-2-(3-methoxyphenyl)propanoyl)piperidin-4-yl)pentan-2-ylamino)benzamide], for which, in test [1], the Emax was 0% and the “LXR alpha IP (nM)” value was “No IP”. For the same molecule, the Emax in test [2] (setting [3]) is 17%. Moreover, the EC50 in test [2] (read-out: LXR beta IP) stood at 3770 nM.
Regarding `CC(CC1CC12CCN(C(=O)C1(c3ccccc3)CCC1)CC2)Nc1ccc(C(=O)N(C)C)c(Cl)c1` (single isomer, unassigned) [Example 5-1, 2-chloro-N,N-dimethyl-4-(1-((S or R)-6-(1-phenylcyclobutanecarbonyl)-6-azaspiro[2.5]octan-1-yl)propan-2-ylamino)benzamide], the Emax in test [1] is 56%; in test [2], 41%. Moreover, the results for the EC50 in test [1] and in test [2] (LXR beta IP (nM)) were 220 nM and 5 nM, respectively.
Consider `CN(C)C(=O)c1ccc(NCCC[C@@H]2CC23CCN(C(=O)[C@](O)(c2ccccc2)C(F)(F)F)CC3)cc1Cl` (single isomer, unassigned) [Example 6-1, 2-chloro-N,N-dimethyl-4-(3-((R or S)-6-((R or S)-3,3,3-trifluoro-2-hydroxy-2-phenylpropanoyl)-6-azaspiro[2.5]octan-1-yl)propylamino)benzamide], for which the Emax in test [1] came out at 21%; in test [2] (setting [3]) it was 30%. The results for the EC50 in test [1] and in test [2] (read-out: LXR beta IP) were 828 nM and 15 nM, respectively.
On to `CN(C)C(=O)c1ccc(NCCC[C@H]2CC23CCN(C(=O)[C@](O)(c2ccccc2)C(F)(F)F)CC3)cc1Cl` (single isomer, unassigned) [Example 6-2, 2-chloro-N,N-dimethyl-4-(3-((S or R)-6-((R or S)-3,3,3-trifluoro-2-hydroxy-2-phenylpropanoyl)-6-azaspiro[2.5]octan-1-yl)propylamino)benzamide], for which the Emax is 11% in test [1] and 56% in test [2] (setting [3]). Besides, the results for the EC50 in test [1] and in test [2] (read-out: LXR beta IP) were 472 nM and 8 nM, respectively.
Regarding `CN(C)C(=O)c1ccc(NCCC[C@H]2CC23CCN(C(=O)[C@](O)(c2ccccc2)C(F)(F)F)CC3)nc1Cl` (single isomer, unassigned) [Example 6-3, 2-chloro-N,N-dimethyl-6-(3-((S or R)-6-((R or S)-3,3,3-trifluoro-2-hydroxy-2-phenylpropanoyl)-6-azaspiro[2.5]octan-1-yl)propylamino)nicotin-amide], the Emax came out at 24% in test [1] and 49% in test [2] (setting [3]). The figures for the EC50 in test [1] and in test [2] (read-out: LXR beta IP) were 1400 nM and 14 nM, respectively.
Consider `O=C(c1ccc(NCCC[C@@H]2CC23CCN(C(=O)[C@](O)(c2ccccc2)C(F)(F)F)CC3)cc1Cl)N1CCCC1` (single isomer, unassigned) [Example 6-4, (R or S)-1-((R or S)-1-(3-(3-chloro-4-(pyrrolidine-1-carbonyl)phenylamino)propyl)-6-azaspiro[2.5]octan-6-yl)-3,3,3-trifluoro-2-hydroxy-2-phenylpropan-1-one], for which, in test [1], the Emax was 6% and the “LXR alpha IP (nM)” value is given as “No IP”. Besides, the Emax in test [2] (setting [3]) amounted to 18%. In test [2] (read-out: LXR beta IP), the EC50 was 34 nM.
Regarding `CN(C)C(=O)c1c(F)cc(NCCC[C@H]2CC23CCN(C(=O)[C@](O)(c2ccccc2)C(F)(F)F)CC3)cc1F` (single isomer, unassigned) [Example 6-5, 2,6-difluoro-N,N-dimethyl-4-(3-((S or R)-6-((R or S)-3,3,3-trifluoro-2-hydroxy-2-phenylpropanoyl)-6-azaspiro[2.5]octan-1-yl)propylamino)benzamide], the Emax was determined as 19% in test [1] and 24% in test [2] (setting [3]). The EC50 in test [1] came to 2150 nM; in test [2] (read-out: LXR beta IP), 49 nM.
Consider `CN(C(=O)c1ccc(NCCC[C@@H]2CC23CCN(C(=O)[C@](O)(c2ccccc2)C(F)(F)F)CC3)cc1Cl)C1CC1` (single isomer, unassigned) [Example 6-6, 2-chloro-N-cyclopropyl-N-methyl-4-(3-((R or S)-6-((R or S)-3,3,3-trifluoro-2-hydroxy-2-phenylpropanoyl)-6-azaspiro[2.5]octan-1-yl)propylamino)benzamide], for which, in test [1], the Emax came to 0% and the “LXR alpha IP (nM)” value is reported as “No IP”. In addition, in test [2] (setting [3]), the Emax was determined as 43%. Moreover, in test [2] (read-out: LXR beta IP), the EC50 worked out at 49 nM.
As to `CN(C)C(=O)c1ccc(NCCC[C@H]2CC23CCN(C(=O)[C@@](O)(c2ccccc2)C(F)(F)C(F)(F)F)CC3)cc1Cl` (single isomer, unassigned) [Example 6-7, 2-chloro-N,N-dimethyl-4-(3-((S or R)-6-((S or R)-3,3,4,4,4-pentafluoro-2-hydroxy-2-phenylbutanoyl)-6-azaspiro[2.5]octan-1-yl)propylamino)benzamide], in test [1], the Emax is 9% and the “LXR alpha IP (nM)” value is “No IP”. The Emax in test [2] (setting [3]) turned out to be 91%. Besides, in test [2] (read-out: LXR beta IP), the EC50 stood at 68 nM.
`CNC(=O)c1ccc(NCCC[C@@H]2CC23CCN(C(=O)[C@@](O)(C(C)C)C(F)(F)F)CC3)cc1Cl` (single isomer, unassigned) [Example 6-8, 2-chloro-4-(3-((R or S)-6-((S or R)-2-hydroxy-3-methyl-2-(trifluoromethyl)butanoyl)-6-azaspiro[2.5]octan-1-yl)propylamino)-N-methylbenzamide]: the Emax in test [1] is 65%; in test [2] (setting [3]) it was 91%. Also, the EC50 in test [1] worked out at 829 nM; in test [2] (read-out: LXR beta IP), 9 nM.
For the molecule `CNC(=O)c1ccc(NCCC[C@@H]2CC23CCN(C(=O)[C@](O)(C(C)C)C(F)(F)F)CC3)cc1Cl` (single isomer, unassigned) [Example 6-9, 2-chloro-4-(3-((R or S)-6-((R or S)-2-hydroxy-3-methyl-2-(trifluoromethyl)butanoyl)-6-azaspiro[2.5]octan-1-yl)propylamino)-N-methylbenzamide], the Emax was found to be 64% in test [1] and 60% in test [2] (setting [3]). The results for the EC50 in test [1] and in test [2] (read-out: LXR beta IP) were 869 nM and 21 nM, respectively.
With `CN(C)C(=O)c1ccc(N(C)CCC[C@@H]2CC23CCN(C(=O)[C@](O)(c2ccccc2)C(F)(F)F)CC3)cc1Cl` (single isomer, unassigned) [Example 7-1, 2-chloro-N,N-dimethyl-4-(methyl(3-((R or S)-6-((R or S)-3,3,3-trifluoro-2-hydroxy-2-phenylpropanoyl)-6-azaspiro[2.5]octan-1-yl)propyl)amino)benzamide], the Emax was 28% in test [1] and 103% in test [2] (setting [3]). In addition, the EC50 in test [1] turned out to be 683 nM; in test [2] (read-out: LXR beta IP), 59 nM.
On to `CN(C)C(=O)c1ccc(NCCC2CC23CCN(C(=O)C2(c4ccccc4)CCCC2)CC3)cc1Cl` (single isomer, unassigned) [Example 8-1, (S or R)-2-chloro-N,N-dimethyl-4-(2-(6-(1-phenylcyclopentanecarbonyl)-6-azaspiro[2.5]octan-1-yl)ethylamino)benzamide], for which, in test [1], the Emax is 0% and the “LXR alpha IP (nM)” value is on record as “No IP”. This molecule also returned an EC50 in test [2] (LXR beta IP (nM)) of 7 nM. Besides, in test [2], the Emax came to 21%.
Turning to `CN(C)C(=O)c1ccc(NC[C@H]2C[C@@H]2C2CCN(C(=O)[C@](O)(c3ccccc3)C(F)(F)F)CC2)cc1Cl` (single isomer, unassigned) [Example 8-2, 2-chloro-N,N-dimethyl-4-(((1S,2R or 1R,2S)-2-(1-((R or S)-3,3,3-trifluoro-2-hydroxy-2-phenylpropanoyl)piperidin-4-yl)cyclopropyl)methylamino)benzamide], the Emax in test [1] stood at 34%; in test [2] (setting [3]), 75%. Besides, the figures for the EC50 in test [1] and in test [2] (read-out: LXR beta IP) were 516 nM and 14 nM, respectively.
As to `CN(C)C(=O)c1ccc(NC[C@H]2C[C@H]2C2CCN(C(=O)[C@](O)(c3ccccc3)C(F)(F)F)CC2)cc1Cl` (single isomer, unassigned) [Example 8-3, 2-chloro-N,N-dimethyl-4-(((1S,2S or 1R,2R)-2-(1-((R or S)-3,3,3-trifluoro-2-hydroxy-2-phenylpropanoyl)piperidin-4-yl)cyclopropyl)methylamino)benzamide], the figures for the Emax in test [1] and in test [2] (setting [3]) were 35% and 50%, respectively. The EC50 in test [1] worked out at 421 nM; in test [2] (read-out: LXR beta IP), 4 nM.
